The test system of series [1] is human CD34+ cells. Format: cell-based.
For series [2], the system named is hCD34+ cells. The settings on record: for Cytotoxic effect of the peptides: hCD34+ cells transduced with RD114TR-LV or GALVTR-MLV, peptide 12 μg/ml.
The test system of series [3] is human hematopoietic cells engraftment. The conditions noted are these: hCD34+ cells transduced in presence of 12 μg/ml LAH4-L1.
The subject of series [4] is 293T cells. The series is described as follows: Transfection of 293T cells with pEGFP-C1 in presence of peptides. The conditions noted are these: peptide 24 μg/ml; 1 μg pEGFP-C1; 48 h. The class given is cell-based. The protocol: FIG. 11. Transfection of 293T cells with pEGFP in presence of LAH4-A4, LAH4-L1 or K2-L10A12-K2 peptides. pEGFP-C1 (1 μg) was mixed in 50 μl of 150 mM NaCl solution with either 3 μg, 4.5 μg, 6 μg or 9 μg of LAH4-A4 or 6 μg of LAH4-L1 or 6 μg of K2-L10A12-K2. Next, the DNA/peptide mix was diluted in 200 μl of DMEM without FCS and loaded onto cell monolayers. 3 hours post-transfection, the medium was replaced with DMEM containing 10% FCS. 48 h later, transfection efficiencies were estimated by monitoring GFP expression using flow cytometry. Data are the average of two independent experiments performed in duplicate with SD.
293T cells (1.5×10E5/well) were plated in 48-well plates the day before transfection. For transfection, 1 μg of pEGFP-C1 was mixed with the desired amount of peptide in 50 μl of 150 mM NaCl solution, vortexed and incubated 15 min at room temperature. Next, the DNA/peptide mix was diluted in 200 μl of DMEM without FCS and loaded onto cell monolayers. 3 hours post-transfection, the medium was replaced with DMEM containing 10% FCS. 48 h later, transfection efficiency was estimated by monitoring GFP expression using flow cytometry.

The test system of series [5] is lentiviral vectors. The settings on record: Wurm et al., 2010; cited from earlier work.

Where no end group is shown, it is not given here.

Results on 22 substances are retold here after patent publication US10596264B2, “Peptides with viral infection enhancing properties and their use” (Genethon, priority 2011, dated 2020).

Consider “KKKLLHAALAHLLALAHHLLALLKKA (LAH4-A4-K3N)”, for which the “Transduction efficiency compared with LAH4-A4 (in words)” value in series [1] is “as efficient as LAH4-A4”.

Regarding KKLLHAALAHLLALAHHLLALLKK (LAH4-A4-d2aa), the “hCD34+ transduction level compared to LAH4-A4” value in series [1] turned out to be 30%.

Regarding “KKALLAHALHLLALLALHLAHALKKA-NH2 [LAH4-L1]”, in series [2], the “Cytotoxic effect (mortality, 7-AAD)” value is recorded as “did not observe any cytotoxic effect” and the “Cytotoxic effect of the peptides” value is reported as “did not observe any cytotoxic effect”. The “Cytotoxic or deleterious effect on human immune system reconstitution” value in series [3] was “did not observed any cytotoxic or deleterious effect”.

With “ALLHAALAHLLALAHHLLALLKKA-NH2 [LAH4-A4-dKN]”, the “Cytotoxicity (mortality, 7-AAD)” value in series [2] is recorded as “not the consequence of a strong cytotoxic effect”.

Consider “KKLLLHALLAHLLALLHHLLALLKKL (LAH4-A4-Leu)”, for which, in series [1], the “Transduction efficiency compared with LAH4-A4 (in words)” value is recorded as “two times less potent than LAH4-A4”.

For the substance “RRALLAHALHLLALLALHLAHALRRA-NH2 [LAH4-L1-R]”, the “Cytotoxicity (mortality, 7-AAD)” value in series [2] is reported as “no apparent cytotoxicity”.

Consider “KKALLAKALKLLALLALKLAKALKKA-NH2 [LAK4-L1]”, for which the “Cytotoxicity (mortality, 7-AAD)” value in series [2] was “not the consequence of a strong cytotoxic effect”.

For KALLHAALAHLLALAHHLLALLKKA (LAH4-A4-K1N), the “hCD34+ transduction level compared to LAH4-A4” value in series [1] is on record as 60%.

As to KKALLAAALAALLALAHHLLALLKKA (LAH2-A4), the “Transduction efficiency compared with LAH4-A4 (in words)” value in series [1] was “not functional”.

For the substance “KKALLHLALLHAALLAHHLALALKKA-NH2 [LAH4-L4ISO]”, the “Cytotoxic effect of the peptides” value in series [2] is recorded as “did not observe any cytotoxic effect”.

In the case of “ALLAHALHLLALLALHLAHALA (LAH4-L1-dK) [LAH4-L 1-dK]”, in series [1], the “Transduction efficiency compared with LAH4-L1 (in words)” value is given as “not detectable”.

On to “KKALLHALLAHLAALLHALLAHLKKA-NH2 [LAH4-A5]”, for which, in series [2], the “Cytotoxic effect of the peptides” value is on record as “did not observe any cytotoxic effect”.

With “KKALLHAALAHLLALAHHLLALLKK (LAH4-A4-d1aa)”, the “Transduction efficiency compared with LAH4-A4 (in words)” value in series [1] is recorded as “slightly decreases the efficiency”.

“KKALLAAALAALLALAAALLALLKKA (K2-L10A12-K2)”: in series [1], the “Transduction efficiency compared with LAH4-A4 (in words)” value is on record as “still able to promote some lentiviral transduction” and the “hCD34+ transduction level compared to LAH4-A4” value was 17%. For the same substance, the “Transfection of 293T cells with GFP plasmid” value in series [4] is listed as “unable to promote cell transfection”.

For “LAH4-L4: L series peptide with hydrophilic angle of 140°; b61: LAH4-L4 peptide of SEQ ID NO:36; possibly LAH4-L4iso is meant (KKALLALALHHLALLAHLLALHLKKA; LAH4-L4) [L series peptide with hydrophilic angle of 140°; possibly LAH4-L4iso is meant]”, the “Capacity to promote transduction of hCD34+ cells with GALVTR-LVs, ranking within L and A series of isomers” value in series [1] was “most efficient”.

As for ALLAHALHLLALLALHLAHALKKA (LAH4-L1-dKN), the “Transduction efficiency compared with LAH4-L1 (in words)” value in series [1] is reported as “not detectable”.

Take “GIHKQKEKSRLQGGVLVNEILNHMKRATQIPSYKKLIMY (SEVI) [human Semen Enhancer of Viral Infection, fragment of the human prostatic acid phosphatase; not amidated]”: the “Ability to promote the transduction of lentiviral vectors” value in series [5] is listed as “able to promote the transduction of lentiviral vectors”.

KKALLAHALHLLALLALHLAHALA (LAH4-L1-dKC): in series [1], the “Transduction efficiency compared with LAH4-L1 (in words)” value is given as “as efficiently as LAH4-L1”.

As for “KKALLHAALAHLLPLAHHLLALLKKA (LAH4-A4-P14)”, the “Lentiviral transduction abolished relative to LAH4-A4” value in series [1] was found to be 80%.

For the substance HHALLAHALHLLALLALHLAHALHHA (LAH8-L1), in series [1], the “Transduction efficiency compared with LAH4-L1 (in words)” value is “detrimental”.

Take “KKALLHAALAHLLALAAALLALLKKA-NH2 [LAH2-A6]”: the “Cytotoxicity (mortality, 7-AAD)” value in series [2] was “no apparent cytotoxicity”.

For the substance “KKALLHAALAHLLALAHHLLALLKKA-NH2 [LAH4-A4]”, in series [2], the “Cytotoxicity (mortality, 7-AAD)” value is “no apparent cytotoxicity”; the “Cytotoxicity (mortality, 7-AAD) in dose-response experiment” value was “no apparent cytotoxicity”; the “Cytotoxic effect of the peptides” value is “did not observe any cytotoxic effect”.
